Results taken from patent publication EP2792360A1, “(1aR,12bS)-8-cyclohexyl-11-fluoro-N-((1-methylcyclopropyl)sulfonyl)-1a-((3-methyl-3,8-diazabicyclo[3.2.1]oct-8-yl)carbonyl)-1,1a,2,2b-tetrahydrocyclopropa[d]indolo[2,1-a][2]benzazepine-5-carboxamide for use in treating HCV” (IP Gesellschaft für Management mbH, priority 2013, dated 2014).
Values belong to the compound of their own block, whether it stands above or below them.

Assays:
physchem = assay: physchem
Protocol: Anal. Chem. Instrum. […] Drug Delivery Rev. […] The binding constant (K) of the gamma-CD inclusion complex ({drug4g}) was calculated from the initial straight line portion of the phase solubility diagram by linear regression, according to the following equation [T. Higuchi et al., Adv. Anal. Chem. Instrum.

[1] = in vitro dissolution of micronized powders in SGF and FeSSIF (miniaturized, non-sink); format: physicochemical
Protocol: Example 28: in vitro Dissolution Results: The in vitro dissolution studies performed in this work were conducted in a miniaturized system with 100 mL dissolution medium per experiment. […] Simulated gastric fluid (SGF) was prepared with 2 g/L NaCl and 1 g/L Triton® X-100 in 0.1 N HCl. The resulting measured pH of SGF was 1.2. Simulated fed state intestinal fluid (FeSSIF) was prepared as previously reported in […]. et al. (Pharm. Res. […] Oral absorption of a drug compound from a solid dosage form is dependent on dissolution rate and solubility. […] Figure 21 of WO/2013/057124presents the dissolution profiles measured in simulated gastric fluid (SGF) and Figure 22 of WO/2013/057124shows the dissolution profiles in simulated fed state intestinal fluid (FeSSIF). […] Changes of pH values in the dissolution test samples taken at different time points were not observed. The ranking of the different solid forms with respect to dissolution speed and maximum drug concentration achieved was identical in both media. The differences in the dissolution profiles in SGF and FeSSIF can be explained by the different composition of the two media since the dissolution generally depends on a variety of factors such as pH, surfactant, buffer capacity, ionic strength, etc. […]

[2] = Relative stability (non-competitive and competitive interconversion) experiments of crystal forms of Compound 1
Protocol: For the non-competitive experiments, only a single starting crystal form was used to study the potential conversion to another more stabb form. […] The slurry was cooled to 25-30 °C, filtered, suction dried for 1 hour and dried in a vacuum oven at 70 °C and 8 kPa absolute pressure for 12 hours. […] The slurry was cooled to 25-30 °C, filtered, suction dried for 1 hour and dried in a vacuum oven at 70 °C and 8 kPa absolute pressure for 12 hours. […] The slurry was cooled to 25-30 °C, filtered, suction dried for 1 hour and dried in a vacuum oven at 70 °C and 8 kPa absolute pressure for 12 hours.

[3] = Stability experiment for polymorph Form A of Compound 1 (stability chamber); format: physicochemical; conditions: 40 °C for 30 days
Protocol: CHARACTERIZATION EXAMPLE 13 - Stability Experiment for Polymorph Form A ({drug1a}) of Compound 1 (drug 1): The physical stability of Form A ({drug1a}) of Compound 1 (drug 1) was determined as follows. Compound 1 (drug 1) prepared according to Preparation Example 3 was analyzed by pXRD, DSC, HPLC and 1H-NMR and found to be of pure crystal Form A ({drug1a}) of 99.9 % purity (by HPLC peak area at 230 nm detection wavelength). An aliquot of the sample (3.0 g) was placed in a primary polyethylene bag, the primary bag was flushed with nitrogen gas and sealed. The primary polyethylene bag was then placed in a secondary polyethylene bag which was again flushed with nitrogen gas and a silica gel sachet was placed between the inner and the outer bag. The double bagged material was then placed in a triple laminated aluminum pouch and placed in a stability chamber at 40 °C for 30 days. Analysis by HPLC and 1H-NMR of the resulting material indicated pure Form A ({drug1a}) of Compound 1 (drug 1) of 99.9 % purity (by HPLC peak area at 230 nm). […] The triclinic cell parameters were determined to be: a = 14.835(7) A, b = 15.216(8) A, c = 18.790(10) A, alpha = 90.306(7) °, beta = 93.619(7) °, gamma = 1 13.045(7) °, volume = 3893(3) A3. The space group was determined to be P-1. The molecular weight was 468.23 giving a calculated density of 1.598g/cm3, and µ(Mo) = 0.50mm"1 for Z = 8. […]

[4] = Solid form stability of forms of compound of formula (IV) (Temperature / Humidity Controlled XRPD, storage, suspension); format: physicochemical
[5] = Hygroscopicity of solid forms of compound of formula (IV) (Ph. Eur. classification); format: physicochemical
Protocol: For the thermogravimetric analyses, approx. 5 - 10 mg of sample were placed in aluminum pans, accurately weighed and hermetically closed with perforation lids. […] The samples were then heated under a flow of nitrogen of about 50 mL/min using a heating rate of 5 K/min. The term "micronization" denotes a process whereby the particle size of a solid material is diminished to a d50 value of less than IOµm by the aid of a suitable method, such as milling, bashing or grinding. […] The term "anti-solvent crystallization" denotes a process wherein supers aturation and as a result thereof crystallisation is achieved by addition of an antisolvent to the product solution. The term "ambient conditions" denotes conditions as experienced in a standard laboratory, e.g. atmospheric pressure, air, ambient temperature between 18 °C and 28 °C, humidity between 30 %rH and 80 %rH. The term "hygroscopicity" describes the ability of a solid material to adsorb moisture. The hygroscopicity of a given API is characterized [European Pharmacopoeia - 6th Edition (2008), Chapter 5.11) by the increase in mass when the relative humidity is raised from 0 %rH to 90 %rH: o non-hygroscopic: weight increase Am < 0.2%; o slightly hygroscopic: weight increase 0.2% < Am < 2.0%; o hygroscopic: weight increase 2.0% < Am < 15.0%; o very hygroscopic: weight increase Am > 15.0%; o deliquescent: sufficient water is adsorbed to form a liquid. The IUPAC lamda convention (W.H. Powell, Pure & Appl. Chem. […] The bonding number "n" of a heteroatom is the sum of the total number of valence bonds to adjacent atoms, if any, and the number of attached hydrogen atoms. The bonding number of a heteroatom is standard when it has the value given in the following table: n=4: C, Si, Ge, Sn, Pb; n=3 B, N, P, As, Sb, Bi, n=2: O, S, Se, Te, Po; n=l; F, CI, Br, I, At. A nonstandard bonding number of a (neutral) heteroatom is indicated by the symbol "λη", where "n" is the bonding number. […]

SMILES: Cc1onc(-c2ccc(F)cc2)c1COc1ccc(C(=O)N2CCS(=O)(=O)CC2)cn1 [gamma-CD inclusion complex ({drug4g}), (1,1-dioxo-1lambda6-thiomorpholin-4-yl)-{6-[3-(4-fluoro-phenyl)-5-methyl-isoxazol-4-ylmethoxy]-pyridin-3-yl]-methanone]
binding constant (K) (physchem): 510.4 M⁻¹
initial concentration achieved in dissolution ([1]; SGF and FeSSIF, room temperature, dropped in the first 60 min to a level comparable to polymorph C): much higher initial concentration

crystal form of the resulting material ([2]; non-competitive, refluxed in deionized water at about 95 °C for 3 hours, pXRD, DSC, TGA, 1H-NMR): remained unchanged
crystal form by pXRD and DSC after storage [3]: pure polymorphForm A
purity (by HPLC peak area at 230 nm) after storage ([3]; double polyethylene bags under nitrogen in aluminum pouch, 99.9 % before storage): 99.9%
SMILES: COc1ccc(Cl)c(S(=O)(=O)NC(=O)c2cn3cc(C(F)(F)F)cc(Cl)c3n2)c1 [Form A ({drug1a}), 8-chloro-N-[(2-chloro-5-methoxyphenyl)sulfonyl]-6-(trifluoromethyl)-imidazo[1,2-a]pyridine-2-carboxamide]
relative thermodynamic stability of polymorph form ([2]; water heated to 95 °C or methanol heated to 55 °C): most thermodynamically stable polymorph form

SMILES: Cc1onc(-c2ccc(F)cc2)c1COc1ccc(C(=O)N2CCS(=O)(=O)CC2)cn1 [Form C ({drug4c}), (1,1-dioxo-1lambda6-thiomorpholin-4-yl)-{6-[3-(4-fluoro-phenyl)-5-methyl-isoxazol-4-ylmethoxy]-pyridin-3-yl]-methanone]
behaviour in the presence of water in suspended state [4]: transforms into Form B
thermodynamic stability of the solid form [4]: most stable polymorph overall
phase change upon storage at 100 rH at ambient temperature ([4]; Form C: prolonged period, e.g. 30 days): does not induce this phase change
solid form changes at elevated temperature ([4]; Temperature Controlled XRPD): do not show solid form changes
hygroscopicity relative to Form A [5]: less hygroscopic than Form A
solubility in simulated gastric fluid (SGF) [1]: considerably improved as compared to Form B
